The source of these data is patent US4397839A, “Surface active material and process for preparing same” (Tokyo Tanabe Company, Limited, priority 1981, dated 1983).

The experiment has as its system mature rabbits suffering from septicemia induced by Escherichia coli, complicated by RDS. Type of experiment: in vivo, rabbit. How it is done:
Specifically, 32 rabbits in the abovedescribed morbid state were divided into 4 groups including one control (or no-treatment) group. […] Then, all groups were comparatively examined for the degree of improvement in respiratory function. The morbid rabbits were prepared and the degree of lung injury was evaluated according to the methods of Cuevas et al. (Archives of Surgery, 104, 319, 1972), and the circulating titer of endotoxin in blood was determined according to the method of Reinhold et al. (Proceedings of the Society for Experimental Biology and Medicine, 137, 334, 1971). The treatment with the material of the invention and/or kanamycin sulfate was carried out within 24 hours before and after the onset of RDS. The material of the invention was instilled 1-6 times into the airway in a dose of 50-100 mg/kg for each treatment, while 80-150 mg/kg of kanamycin sulfate was intramuscularly injected in 2-8 divided doses. Two days after treatment, the subjects were examined for survival and the degree of lung injury. […] The degree of lung injury becomes severer as the value increases.

The structures appear in SMILES notation. “And” between values parts separate entries of the source, which are not always exact repeats. Equal entries are not always repeated. Structures can show the parent of a compound that is named as a salt.

Turning to `NC[C@H]1O[C@H](O[C@H]2[C@H](O)[C@@H](O[C@H]3O[C@H](CO)[C@@H](O)[C@H](N)[C@H]3O)[C@H](N)C[C@@H]2N)[C@H](O)[C@@H](O)[C@@H]1O` [kanamycin sulfate], where the note is “individual animals (one line per subject)”, the “Circulating titer (endotoxin in blood)” value is 0.10 µg/mL and 0.01 µg/mL and 0.00 µg/mL and 0.40 µg/mL and 0.02 µg/mL. Further, the Survival result (individual animals, two days after treatment) is “No and Yes”. For the same molecule, under “individual animals, two days after treatment, severer as the value increases”, the “Degree of lung injury” value was 3 and 0 and 1 and 2.
